Measured values published in patent US7592424B2, “Ion channel-like polypeptide and use thereof” (Kyoto University, priority 2004, dated 2009).

Biological target: Ciona intestinalis Ci-VSP cytoplasmic domain (phosphatase domain, residues 248-576 of Ci-VSP, SEQ ID NO: 2), wild type, GST fusion protein (GST-Ci-VSP) (Ciona intestinalis, UniProt Q4W8A1)
Experiment: Malachite green assay of phosphoinositide phosphatase activity at various PIP3 concentrations, Michaelis-Menten fit
Type: biochemical
Settings: substrate PIP3, initial rate V0 at t=0, Michaelis-Menten fit (FIG. 4c)
Description: To express N-terminal fused protein of the cytoplasmic domain of Ci-VSP with the GST gene, the cDNA encoding residues 248-576 of Ci-VSP was subcloned into the EcoRI-XhoI site of pGEX4T3 (Amersham Pharmacia). GST-fused protein was expressed and purified from E. coli JM109 with glutathione-sepharose CL-4B (Amersham Pharmacia). Phosphatase activity of Ci-VSP was measured with the methods previously adopted for PTEN phosphatase.
To see whether the Ci-VSP has phosphatase activity that uses PI(3, 4, 5)P3 as a substrate, a fusion protein of GST and the whole C-terminal cytoplasmic region of Ci-VSP was synthesized. FIG. 3b represents phosphoinositide phosphatase activity of the fusion protein of glutathione s-transferase and the phosphatase-like domain of Ci-VSP by a malachite green assay using PI(3, 4, 5)P3 as a substrate. […] BIOMOL GREEN™ reagent (Biomol, Plymouth Meeting, Pa.) was added to the sample and […] was measured by using H2O as a reference. […]
Enzyme activity of Ci-VSP was examined with thin layer chromatography (TLC). […] Where there is enzyme activity using PI(3, 4, 5)P3 as a substrate, the degraded product PIP2(NBD6-diC6-PI(4, 5)P2) is detected. […]
Malachite green imparts pale yellow in the absence of inorganic phosphate. […] Thus, by measuring absorbance of malachite green at 620 nm, the inorganic phosphate that is generated by the degradation of PI(3, 4, 5)P3 to PI(4, 5)P2 can be quantified. […]

Ciona intestinalis Ci-VSP cytoplasmic domain (phosphatase domain, residues 248-576 of Ci-VSP, SEQ ID NO: 2), wild type, GST fusion protein (GST-Ci-VSP), sequence (Q4W8A1 entry or part of it): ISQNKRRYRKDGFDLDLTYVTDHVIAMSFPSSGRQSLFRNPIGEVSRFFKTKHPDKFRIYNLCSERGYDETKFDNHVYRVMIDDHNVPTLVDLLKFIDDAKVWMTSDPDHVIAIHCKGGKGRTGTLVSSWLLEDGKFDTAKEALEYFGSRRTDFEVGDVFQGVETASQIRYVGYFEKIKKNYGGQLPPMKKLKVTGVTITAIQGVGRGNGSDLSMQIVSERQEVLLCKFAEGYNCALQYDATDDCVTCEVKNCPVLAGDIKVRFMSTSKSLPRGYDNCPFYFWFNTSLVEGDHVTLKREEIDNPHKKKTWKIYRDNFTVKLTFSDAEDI

**Q.** Which results are given for PIP3?
**A.** Vmax (maximum rate): 0.292 nmol/min/µg; Km (read-out: Km (substrate concentration required for 1/2 Vmax)): 36 µM
